# Active and inactive are the calls of the source. The rule behind the calls is not given here.
# What was measured:
# Quadruplex DNA [1] = test: Stabilization of 5'-DABCYL/3'-FAM labeled BCL2 G-quadruplex oligonucleotide (unknown origin) assessed as change in melting temperature at 5 uM preincubated for 5 mins and measured after 5 mins by FRET assay; assay type: nucleic-acid assay
# dsDNA = test: Stabilization of 5'-DABCYL labeled double stranded DNA (unknown origin) assessed as change in melting temperature at 5 uM preincubated for 5 mins and measured after 5 mins by FRET assay; assay type: nucleic-acid assay
# Quadruplex DNA [2] = test: Stabilization of 5'-DABCYL/3'-FAM labeled HTS G-quadruplex oligonucleotide (unknown origin) assessed as change in melting temperature at 5 uM preincubated for 5 mins and measured after 5 mins by FRET assay; assay type: nucleic-acid assay
# Quadruplex DNA [3] = test: Stabilization of 5'-DABCYL/3'-FAM labeled cKIT1 G-quadruplex oligonucleotide (unknown origin) assessed as change in melting temperature at 5 uM preincubated for 5 mins and measured after 5 mins by FRET assay; assay type: nucleic-acid assay
# Quadruplex DNA [4] = test: Stabilization of 5'-DABCYL/3'-FAM labeled cMYC G-quadruplex oligonucleotide (unknown origin) assessed as change in melting temperature at 5 uM preincubated for 5 mins and measured after 5 mins by FRET assay; assay type: nucleic-acid assay
# Quadruplex DNA [5] = test: Stabilization of 5'-DABCYL/3'-FAM labeled KRAS G-quadruplex oligonucleotide (unknown origin) assessed as change in melting temperature at 5 uM preincubated for 5 mins and measured after 5 mins by FRET assay; assay type: nucleic-acid assay
# A2780 = test: Cytotoxicity against human A2780 cells assessed as cell viability at 20 uM incubated for 48 hrs by trypan blue assay relative to control; assay type: functional; details: A2780, 48 h, read-out: Activity
# Quadruplex DNA [6] = test: Binding affinity to 5'-DABCYL/3'-FAM labeled cKIT1 G-quadruplex oligonucleotide (unknown origin) assessed as melting temperature at test compound to DNA ratio of 4:1 measured for 10 mins by circular dichroism analysis; assay type: nucleic-acid assay
# Quadruplex DNA [7] = test: Competitive binding affinity to 5'-DABCYL/3'-FAM labeled cKIT1 G-quadruplex oligonucleotide (unknown origin) at 5 uM preincubated for 5 mins and measured after 5 mins in presence of ds DNA by FRET assay; assay type: nucleic-acid assay
# Quadruplex DNA [8] = test: Binding affinity to 5'-biotin-TEG labeled cKIT1 G-quadruplex oligonucleotide (unknown origin) by SPR analysis; assay type: nucleic-acid assay
# A549 = test: Cytotoxicity against human A549 cells assessed as cell viability at 20 uM incubated for 48 hrs by trypan blue assay relative to control; assay type: functional; details: A549, 48 h, read-out: Activity
# HT-29 = test: Cytotoxicity against human HT-29 cells assessed as cell viability at 20 uM incubated for 48 hrs by trypan blue assay relative to control; assay type: functional; details: HT-29, 48 h, read-out: Activity
# Quadruplex DNA [9] = test: Binding affinity to 5'-cy5 labeled cKIT1 G-quadruplex oligonucleotide (unknown origin) by microscale thermophoresis analysis; assay type: nucleic-acid assay
# Quadruplex DNA [10] = test: Binding affinity to 5'-DABCYL/3'-FAM labeled cKIT1 G-quadruplex oligonucleotide (unknown origin) assessed as conformational change at test compound to DNA ratio of 4:1 measured for 10 mins by circular dichroism analysis; assay type: nucleic-acid assay
SMILES,ΔTm (Quadruplex DNA [1]),deltaTm (dsDNA),ΔTm (Quadruplex DNA [2]),ΔTm (Quadruplex DNA [3]),ΔTm (Quadruplex DNA [4]),deltaTm (Quadruplex DNA [5]),viability at 20 µM (A2780),Tm (Quadruplex DNA [6]),Activity (Quadruplex DNA [7]),Kd (Quadruplex DNA [8]),viability at 20 µM (A549),ΔTm (dsDNA),viability at 20 µM (HT-29),Kd (Quadruplex DNA [9]),Activity (Quadruplex DNA [10]),ΔTm (Quadruplex DNA [5]),deltaTm (Quadruplex DNA [3]),deltaTm (Quadruplex DNA [1]),deltaTm (Quadruplex DNA [4])
C=C(C)Cc1c(OCC(=O)NCC2CCCN2CC)ccc2c1c1ccnc3c4ccccc4c(=O)n2c13 (centres undefined),0 °C,inactive,1.7 °C,1.6 °C,3.4 °C,inactive,,,,,,,,,,,,,
COc1ccc2c(c1OC)c(=O)n1c3ccc(OCC(=O)NCCCN4CCOCC4)cc3c3ccnc2c31,3.4 °C,,4.5 °C,6.3 °C,4.9 °C,,94%,59.9 °C,inactive,0.51 µM,69%,0.1 °C,85%,0.3 µM,Active,0.8 °C,,,
COc1ccc2c(c1OC)c(=O)n1c3ccccc3c3cc(C(=O)N4CCN(CCO)CC4)nc2c31,2.3 °C,inactive,0.6 °C,,0.8 °C,inactive,,,,,,,,,,,inactive,,
COc1ccc2c(c1OC)c(=O)n1c3ccccc3c3cc(C(=O)N4CCN(Cc5ccccc5)CC4)nc2c31,,inactive,0.5 °C,,,inactive,,,,,,,,,,,inactive,inactive,inactive
CN(C)Cc1c(O)ccc2c1c1ccnc3c4ccccc4c(=O)n2c13,1.1 °C,,3.3 °C,5 °C,3.8 °C,inactive,,,,,,0.1 °C,,,,,,,
CCN1CCN(C(=O)c2cc3c4ccccc4n4c(=O)c5ccccc5c(n2)c34)CC1,2.3 °C,,1.5 °C,,1.2 °C,inactive,,,,,,0.6 °C,,,,,inactive,,

# Reference: ChEMBL document CHEMBL4311958, “Targeting multiple G-quadruplex-forming DNA sequences: Design, biophysical and biological evaluations of indolo-naphthyridine scaffold derivatives” (Eur J Med Chem, 2019)
